Test results: article PMC6037779, “Repurposing drugs to target the malaria parasite unfolding protein response” (Scientific Reports, 2018)

What was measured:
[1] = tested on: Plasmodium falciparum W2; test: In vitro growth inhibition assay (SYBR Green I), strain W2; type: cell-based; conditions: Plasmodium falciparum, W2; chloroquine-resistant strain; 72 hours; average of three ± SD; read-out: EC50, growth inhibition, P. falciparum W2
Procedure: (§1) A major goal of our study was to evaluate the drug target potential of P. falciparum GRP78, thus we evaluated the effect of the chaperone inhibition on the malaria parasite. Our approach took advantage of several GRP78 inhibitors (Fig. 3a) previously characterized against human cancer cell lines, which were commercially available[20],[24]–[27]. These compounds were tested against two different parasite strains with opposite sensitivity towards the antimalarial drug chloroquine, 3D7 (sensitive) and W2 (resistant). […] A synchronized P. falciparum culture, with over 80% ring forms, was used in the growth inhibition assay. Each strain was assayed at 0.5% parasitaemia and 1.5% hematocrit. A 190 µL aliquot of parasite culture was dispensed per well to microplates that were pre-dispensed with the compounds at various dilutions. […] Dilutions of GRP78 inhibitors and DHA were prepared in water with a final concentration of DMSO below 0.05% (v/v). […] After incubation, the plates were subject to a freeze-thaw cycle (−80 °C) and the parasite growth was quantified by the SYBR Green I method as previously described. Briefly, 100 µl of homogenized parasite culture was transferred into 96-well black plates. 100 µl of SYBR Green lysis buffer (2x SYBR Green I, 100 mM Tris-HCl pH 7.5, 10 mM EDTA, 0.016% Saponin and 1.6% Triton X-100) were added to each well. The plates were incubated at room temperature in darkness for 1 hour.
(§2) Growth inhibition experiments were conducted at least three times per compound. […] The statistical analysis was performed with the software Prism 7 (GraphPad Software, San Diego, CA).

[2] = tested on: Plasmodium falciparum 3D7; test: In vitro growth inhibition assay (SYBR Green I), strain 3D7; type: cell-based; conditions: Plasmodium falciparum, 3D7; chloroquine-sensitive strain; 72 hours; average of three ± SD; read-out: EC50, growth inhibition, P. falciparum 3D7
Procedure: as §1, §2

[3] = target: T1, PfGRP78-NBD wt (Plasmodium falciparum, UniProt Q05866); test: biochemical; type: binding
T1 construct: His-tag (pET28-MHL, TEV site) (N, cleaved yes); made in house; host or cells: E. coli BL21(DE3)
Procedure: To quantify the binding affinities of PfGRP78-NBD for the selected compounds, dissociation constants (Kd) were determined by surface plasmon resonance (SPR). […] Purified PfGRP78-FL, PfGRP78-NBD wild-type and mutant, and human GRP78-NBD were immobilized on a CM5 sensorchip using NHS/EDC coupling following the manufacturer protocol to a level of <10,000 RUs, a reference surfaces without immobilized proteins served as a control for nonspecific binding and refractive index changes. […] The running buffer was 10 mM HEPES, pH 7.4, 150 mM NaCl, 0.005% P20, 1% DMSO and 2 mM MgCl2. Buffer only injections were used as blanks. The Biacore responses recorded during the 30 seconds of the injection were used to estimate the association constant (kon) and the 300 seconds after the injection were used to estimate the dissociation constant (koff). All dissociation and kinetic constants were estimated using double subtracted sensorgrams[40] using BiaEvaluation Software (GE Healthcare). All the reported parasite dissociation constants (Kd) were estimated with affinity analysis, and all the reported human Kds were calculated from kinetic constants.

[4] = target: T2, PfGRP78 (Plasmodium falciparum, UniProt Q05866); test: PfGRP78 protein levels by immuno-blot after exposure of P. falciparum W2 culture; type: cell-based
T2 construct: endogenous in cells; host or cells: P. falciparum W2 culture in human red blood cells
Procedure: Culture aliquots were taken at several time points and the PfGRP78 levels of were evaluated by immuno-blots (Fig. 4). […] Thus, providing further support to the notion that Apoptozole antiplasmodial activity is mediated by its effect on PfGRP78.
A 55 ml suspension of ring-stage P. falciparum W2 parasites at 1.5% parasitaemia and 1.5% of hematocrit were split into 11 culture dishes of 5 ml each. One culture plate was served as a starting point (0 h) and of the remaining ten culture plates, half were exposed to 45 µM Apoptozole and half to DMSO 0.09% for 6 h. After 6 h the Apoptozole or DMSO were removed by washing the parasite culture with complete media twice. Culture dishes contained control (DMSO) and Apoptozole treated parasites were incubated at 37 °C in 5% O2 and 5% CO2 atmosphere throughout the duration of the experiment. One of each control and treated group were harvest at times 1, 3, 6, 24 and 48 hours. Samples were processed by harvesting the red blood cell using centrifugation 5 min at 5000 g and washed twice with PBS 1 × 5000 g for 1 min at 4 °C. The pellet was resuspended in 1 ml of 0.02% saponin-PBS solution (Sigma, Aldrich) and centrifuged 10 min 11000 g at 4 °C. The parasite pellet was washed twice with PBS and resuspended in 100 µl PBS. A 30 µl sample was mixed with 30 µl of Laemlii lysis buffer (BioRad) and 3 µl 14.1 M 2-mercaptoethanol (BioRad) and boiled for 10 min. […]

[5] = tested on: HCT-116; test: Growth inhibition of human cell line; type: cell-based
Procedure: as §2

T2 sequence (Q05866 25-652): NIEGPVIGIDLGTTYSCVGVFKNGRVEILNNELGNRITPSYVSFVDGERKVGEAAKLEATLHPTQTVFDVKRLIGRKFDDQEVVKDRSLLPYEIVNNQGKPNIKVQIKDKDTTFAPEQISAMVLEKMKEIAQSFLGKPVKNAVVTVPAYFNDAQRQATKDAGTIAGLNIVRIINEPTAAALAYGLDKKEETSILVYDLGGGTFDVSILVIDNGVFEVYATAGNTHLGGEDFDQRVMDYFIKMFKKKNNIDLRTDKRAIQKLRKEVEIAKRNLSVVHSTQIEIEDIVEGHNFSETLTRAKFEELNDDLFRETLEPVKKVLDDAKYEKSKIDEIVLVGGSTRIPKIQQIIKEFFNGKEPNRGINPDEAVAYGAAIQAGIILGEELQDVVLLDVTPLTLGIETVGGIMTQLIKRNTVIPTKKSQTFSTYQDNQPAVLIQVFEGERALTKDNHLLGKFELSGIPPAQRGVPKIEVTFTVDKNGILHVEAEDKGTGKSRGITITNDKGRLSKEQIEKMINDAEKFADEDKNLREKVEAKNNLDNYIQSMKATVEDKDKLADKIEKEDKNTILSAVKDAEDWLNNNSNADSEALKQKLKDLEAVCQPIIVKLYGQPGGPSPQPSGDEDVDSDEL
T1 sequence (Q05866 26-404): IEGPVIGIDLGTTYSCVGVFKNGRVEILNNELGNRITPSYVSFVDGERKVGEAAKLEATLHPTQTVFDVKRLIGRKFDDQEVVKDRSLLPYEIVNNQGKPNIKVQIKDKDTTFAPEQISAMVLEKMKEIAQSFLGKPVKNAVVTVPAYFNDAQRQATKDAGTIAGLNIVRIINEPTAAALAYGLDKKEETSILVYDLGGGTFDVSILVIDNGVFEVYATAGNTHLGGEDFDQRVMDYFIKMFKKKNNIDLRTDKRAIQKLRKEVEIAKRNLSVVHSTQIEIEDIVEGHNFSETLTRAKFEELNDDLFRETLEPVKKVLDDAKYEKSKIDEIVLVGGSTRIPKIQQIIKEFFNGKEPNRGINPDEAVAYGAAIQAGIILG

COc1ccc(-c2nc(-c3cc(C(F)(F)F)cc(C(F)(F)F)c3)n(Cc3ccc(C(N)=O)cc3)c2-c2ccc(OC)cc2)cc1 [Apoptozole]
EC50 [1]: 4.5 ± 0.4 µM
EC50 [2]: 6.8 ± 1.4 µM
Kd [3]: 4.27 ± 0.86 µM
PfGRP78 levels, first 6 hours ([4]; 45 µM (10xEC50) for 6 h): did not changed
PfGRP78 levels, 24 and 48 h time points ([4]; 45 µM (10xEC50) for 6 h then washed): clear reduction
EC50 ([5]; HCT-116, human cell line, average of three ± SD, read-out: EC50, growth inhibition, HCT-116): 16.5 ± 12.8 µM
times more selective towards P. falciparum ([5]; HCT-116 vs P. falciparum EC50, Results text b30): 2.9 times
